# Test results reported in ChEMBL document CHEMBL1201862, “PubChem BioAssay data set” (2004).
# Activity calls are given as the source filed them.
# Key:
# [1] = biological target: Dual specificity tyrosine-phosphorylation-regulated kinase 1A (Rattus norvegicus, UniProt Q63470); assay type: biochemical, Homo sapiens
# [2] = cells; assay type: functional
# [3] = biological target: Voltage-dependent T-type calcium channel subunit alpha-1H (Homo sapiens, UniProt O95180); assay type: functional;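 further: channel activity triggered by adding a high calcium stimulation buffer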
# [4] = biological target: T1, Caspase-6 (Homo sapiens, UniProt P55212); test: human caspase-6 inhibitors, dose response, biochemical, VEID-R110 fluorescence, cherry-pick (AID 720632)
# T1 sequence (P55212 whole entry): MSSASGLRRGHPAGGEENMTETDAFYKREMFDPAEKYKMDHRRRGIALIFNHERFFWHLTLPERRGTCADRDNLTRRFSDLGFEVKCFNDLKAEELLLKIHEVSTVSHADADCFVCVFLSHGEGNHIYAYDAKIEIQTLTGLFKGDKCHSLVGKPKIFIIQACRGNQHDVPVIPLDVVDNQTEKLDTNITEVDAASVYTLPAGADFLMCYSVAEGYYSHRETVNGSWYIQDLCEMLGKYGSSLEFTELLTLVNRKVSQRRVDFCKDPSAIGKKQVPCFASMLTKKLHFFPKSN
# [5] = inhibitors of clade B AD8 Env fusion, dose response, cell-based, cherry-pick (AID 652062); assay type: functional;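 further: luciferase signal from cell-cell fusion driven by HIV-1 clade B AD8 Env; potency is for inhibitors of fusion seen as a drop in luminescence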
# [6] = inhibitors of HIV Env-driven cell fusion, dose response, cherry-pick (AID 652057); assay type: functional, cell-based
# [7] = off-target signal loss in HeLa-CEM21 co-culture – HeLa F-luc CTL cells, cherry-picked, counter-screen for HIV-1 Env fusion inhibitor project, dose response (AID 652040); assay type: functional, cell-based;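 further: potency for signal decrease marking cytotoxic or nonspecific inhibition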
# [8] = ZM109 Env clade C HIV-1 fusion inhibitors, dose response, HeLa effector, CEM target cells, luciferase, cherry-pick (AID 652058); assay type: functional, cell-based
# [9] = cells; assay type: functional, cell-based
# [10] = cells; assay type: functional, cell-based; remark: listed apart in the source
# [11] = cytotoxicity toward DRD oncogenic fibroblasts, dose response, cell-based, non-viral oncogenic, luminescence (AID 1934); assay type: functional; details: Homo sapiens
# [12] = tested on: BJ; test: cells; assay type: functional, cell-based; details: Homo sapiens
# [13] = inhibitors of SNCA 5'UTR-driven reporter translation, confirmation, H4 neuroglioma cells, luminescence (AID 1988); assay type: functional, cell-based
# [14] = Luminescence Cell-Based Dose Response HTS to Identify Inhibitors of 5'UTR Stem-Loop Driven Prion Protein mRNA Translation in H4 Neuroglioblastoma Cells. [Related pubchem assays: 1827 (Project Summary), 1813 (Primary HTS)]; assay type: functional
# [15] = tested on: BJ; test: cytotoxicity toward BJ-TERT-LT-ST fibroblasts, dose response, cell-based, RAS-independent, luminescence (AID 1935); assay type: functional; details: Homo sapiens;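 further: BJ fibroblasts immortalized with TERT plus LT and ST oncogenes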
# [16] = tested on: BJ; test: cytotoxicity toward BJ-TERT fibroblasts, dose response, cell-based, RAS-independent, luminescence (AID 1933); assay type: functional; details: Homo sapiens
# [17] = inhibitors of firefly luciferase expression or activity, dose response, H4 neuroglioma cells, luminescence (AID 1990); assay type: functional, cell-based
# [18] = biological target: T2, Lysine-specific demethylase 4C (Homo sapiens, UniProt Q9H3R0); test: GASC-1 (JMJD2C) histone demethylase inhibitors, dose response, biochemical, DELFIA europium, cherry-picked samples (AID 488835); assay type: functional
# T2 sequence (Q9H3R0 whole entry): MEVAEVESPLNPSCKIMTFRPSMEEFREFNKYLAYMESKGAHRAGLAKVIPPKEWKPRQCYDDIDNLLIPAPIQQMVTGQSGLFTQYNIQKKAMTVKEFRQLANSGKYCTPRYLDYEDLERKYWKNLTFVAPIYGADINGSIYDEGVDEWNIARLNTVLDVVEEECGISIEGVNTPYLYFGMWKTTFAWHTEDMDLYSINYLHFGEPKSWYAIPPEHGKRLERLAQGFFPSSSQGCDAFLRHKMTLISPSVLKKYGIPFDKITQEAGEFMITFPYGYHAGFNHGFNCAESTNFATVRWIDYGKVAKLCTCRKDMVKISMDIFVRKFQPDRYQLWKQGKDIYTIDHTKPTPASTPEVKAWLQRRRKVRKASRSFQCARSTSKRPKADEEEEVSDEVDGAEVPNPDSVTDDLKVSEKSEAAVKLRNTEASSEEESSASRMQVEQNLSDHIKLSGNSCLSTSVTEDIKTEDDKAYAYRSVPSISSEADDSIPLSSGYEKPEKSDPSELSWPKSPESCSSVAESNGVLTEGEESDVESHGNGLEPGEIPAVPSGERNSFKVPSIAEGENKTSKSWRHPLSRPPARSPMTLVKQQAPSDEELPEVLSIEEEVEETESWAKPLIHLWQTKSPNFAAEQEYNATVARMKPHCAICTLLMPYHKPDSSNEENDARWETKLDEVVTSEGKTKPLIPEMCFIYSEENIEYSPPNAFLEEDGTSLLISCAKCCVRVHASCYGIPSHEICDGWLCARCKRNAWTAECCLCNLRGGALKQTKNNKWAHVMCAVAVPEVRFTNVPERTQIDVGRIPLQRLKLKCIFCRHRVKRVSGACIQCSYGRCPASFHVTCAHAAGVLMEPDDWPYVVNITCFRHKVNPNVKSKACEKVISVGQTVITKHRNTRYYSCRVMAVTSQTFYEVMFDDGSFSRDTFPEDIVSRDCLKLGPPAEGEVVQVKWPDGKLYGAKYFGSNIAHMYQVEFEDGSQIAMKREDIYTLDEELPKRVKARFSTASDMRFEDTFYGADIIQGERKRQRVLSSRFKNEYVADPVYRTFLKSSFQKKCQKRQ
# [19] = microbe, parasite or virus in culture; assay type: functional; details: Mycobacterium tuberculosis
# [20] = HEp-2 cell cytotoxicity, dose response, cytotoxicity control for RSV inhibitor project, HTS (AID 2410); assay type: functional; details: human respiratory syncytial virus
# [21] = biological target: Nonstructural protein 1 (Influenza A virus, UniProt Q194T2); assay type: functional, Influenza A virus (A/California/07/2009(H1N1))
# [22] = biological target: T3, Ubiquitin-conjugating enzyme E2 N (Homo sapiens, UniProt P61088); assay type: functional;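 further: Dose-response confirmation in a TR-FRET assay detecting UBC13-driven polyubiquitin chain formation, inhibition measured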
# T3 sequence (P61088 whole entry): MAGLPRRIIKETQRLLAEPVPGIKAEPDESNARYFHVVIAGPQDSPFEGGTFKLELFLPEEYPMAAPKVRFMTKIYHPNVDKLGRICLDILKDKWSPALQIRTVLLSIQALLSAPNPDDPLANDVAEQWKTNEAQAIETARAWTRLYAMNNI
# [23] = biological target: T4, Carboxy-terminal domain RNA polymerase II polypeptide A small phosphatase 1 (Homo sapiens, UniProt Q9GZU7); test: inhibitors of CTDSP1, concentration-response testing, biochemical assay, absorbance-based, actives from ultra-high-throughput screening (AID 540297); assay type: functional
# T4 sequence (Q9GZU7 whole entry): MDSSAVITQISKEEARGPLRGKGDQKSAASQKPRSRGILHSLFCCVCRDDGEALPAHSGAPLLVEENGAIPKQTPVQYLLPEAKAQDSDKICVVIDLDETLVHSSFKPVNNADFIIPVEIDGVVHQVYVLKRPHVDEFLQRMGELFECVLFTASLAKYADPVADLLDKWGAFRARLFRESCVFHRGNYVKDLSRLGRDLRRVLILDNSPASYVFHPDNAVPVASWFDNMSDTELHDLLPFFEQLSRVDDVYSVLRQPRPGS
# [24] = control 3'UTR Renilla luciferase suppression, dose response, counter-screen for Shn3 inhibitor project, cell-based, Clone20-Shn3RL, cherry-picked (AID 624133); assay type: functional
# [25] = tested on: Vero; test: cells; assay type: functional; details: Chlorocebus sabaeus
# [26] = HepG2 cell cytotoxicity, dose response, cytotoxicity control for Shn3 inhibitor project, CellTiter-Glo, cherry-picked (AID 624134); assay type: functional, cell-based
# [27] = Shn3 3'UTR reporter inhibitors, dose response, cell-based, Clone20 osteoblasts, firefly luciferase, cherry-picked (AID 624132); assay type: functional;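 further: firefly luciferase luminescence from reporter carrying the Shn3 3'UTR in osteoblasts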
# [28] = P. falciparum Dd2 growth inhibitors, dose response, SYBR Green, cherry-picked samples (AID 1159567); assay type: functional, cell-based
# [29] = biological target: Paired box protein Pax-8 (Homo sapiens, UniProt Q06710); test: inhibitors of PAX8-driven TPO luciferase reporter, dose response, RMG-I cells, cherry-pick (AID 687027); assay type: functional, cell-based;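 further: luciferase reporter driven by Pax8 target thyroperoxidase promoter measured by SteadyGlo luminescence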
# [30] = HepG2 cell cytotoxicity, dose response, cytotoxicity control, cherry-picked samples (AID 1159577); assay type: functional, cell-based
# [31] = Luminescence Cell-Based Dose Retest to Confirm Inhibitors of Cancer Stem Cells. [Related pubchem assays (depositor defined):AID2717, AID2721]; assay type: functional; details: Homo sapiens
# [32] = growth suppression of beta-catenin-knockout colon cells, dose response, cell-based, HCT116, human colon tumor (AID 1045); assay type: functional;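 further: HCT116 colon tumor cells with beta catenin knocked out; cells exposed to compound for 60 hours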
# [33] = growth suppression of PTEN-null colon cells, dose response, cell-based, HCT116 PTEN knockout (AID 1047); assay type: functional;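 further: HCT116 colon tumor cells with PTEN knocked out; cells exposed to compound for 60 hours before readout; potency for loss of cell viability measured by luminescence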
# Sequence of Voltage-dependent T-type calcium channel subunit alpha-1H (O95180 whole entry): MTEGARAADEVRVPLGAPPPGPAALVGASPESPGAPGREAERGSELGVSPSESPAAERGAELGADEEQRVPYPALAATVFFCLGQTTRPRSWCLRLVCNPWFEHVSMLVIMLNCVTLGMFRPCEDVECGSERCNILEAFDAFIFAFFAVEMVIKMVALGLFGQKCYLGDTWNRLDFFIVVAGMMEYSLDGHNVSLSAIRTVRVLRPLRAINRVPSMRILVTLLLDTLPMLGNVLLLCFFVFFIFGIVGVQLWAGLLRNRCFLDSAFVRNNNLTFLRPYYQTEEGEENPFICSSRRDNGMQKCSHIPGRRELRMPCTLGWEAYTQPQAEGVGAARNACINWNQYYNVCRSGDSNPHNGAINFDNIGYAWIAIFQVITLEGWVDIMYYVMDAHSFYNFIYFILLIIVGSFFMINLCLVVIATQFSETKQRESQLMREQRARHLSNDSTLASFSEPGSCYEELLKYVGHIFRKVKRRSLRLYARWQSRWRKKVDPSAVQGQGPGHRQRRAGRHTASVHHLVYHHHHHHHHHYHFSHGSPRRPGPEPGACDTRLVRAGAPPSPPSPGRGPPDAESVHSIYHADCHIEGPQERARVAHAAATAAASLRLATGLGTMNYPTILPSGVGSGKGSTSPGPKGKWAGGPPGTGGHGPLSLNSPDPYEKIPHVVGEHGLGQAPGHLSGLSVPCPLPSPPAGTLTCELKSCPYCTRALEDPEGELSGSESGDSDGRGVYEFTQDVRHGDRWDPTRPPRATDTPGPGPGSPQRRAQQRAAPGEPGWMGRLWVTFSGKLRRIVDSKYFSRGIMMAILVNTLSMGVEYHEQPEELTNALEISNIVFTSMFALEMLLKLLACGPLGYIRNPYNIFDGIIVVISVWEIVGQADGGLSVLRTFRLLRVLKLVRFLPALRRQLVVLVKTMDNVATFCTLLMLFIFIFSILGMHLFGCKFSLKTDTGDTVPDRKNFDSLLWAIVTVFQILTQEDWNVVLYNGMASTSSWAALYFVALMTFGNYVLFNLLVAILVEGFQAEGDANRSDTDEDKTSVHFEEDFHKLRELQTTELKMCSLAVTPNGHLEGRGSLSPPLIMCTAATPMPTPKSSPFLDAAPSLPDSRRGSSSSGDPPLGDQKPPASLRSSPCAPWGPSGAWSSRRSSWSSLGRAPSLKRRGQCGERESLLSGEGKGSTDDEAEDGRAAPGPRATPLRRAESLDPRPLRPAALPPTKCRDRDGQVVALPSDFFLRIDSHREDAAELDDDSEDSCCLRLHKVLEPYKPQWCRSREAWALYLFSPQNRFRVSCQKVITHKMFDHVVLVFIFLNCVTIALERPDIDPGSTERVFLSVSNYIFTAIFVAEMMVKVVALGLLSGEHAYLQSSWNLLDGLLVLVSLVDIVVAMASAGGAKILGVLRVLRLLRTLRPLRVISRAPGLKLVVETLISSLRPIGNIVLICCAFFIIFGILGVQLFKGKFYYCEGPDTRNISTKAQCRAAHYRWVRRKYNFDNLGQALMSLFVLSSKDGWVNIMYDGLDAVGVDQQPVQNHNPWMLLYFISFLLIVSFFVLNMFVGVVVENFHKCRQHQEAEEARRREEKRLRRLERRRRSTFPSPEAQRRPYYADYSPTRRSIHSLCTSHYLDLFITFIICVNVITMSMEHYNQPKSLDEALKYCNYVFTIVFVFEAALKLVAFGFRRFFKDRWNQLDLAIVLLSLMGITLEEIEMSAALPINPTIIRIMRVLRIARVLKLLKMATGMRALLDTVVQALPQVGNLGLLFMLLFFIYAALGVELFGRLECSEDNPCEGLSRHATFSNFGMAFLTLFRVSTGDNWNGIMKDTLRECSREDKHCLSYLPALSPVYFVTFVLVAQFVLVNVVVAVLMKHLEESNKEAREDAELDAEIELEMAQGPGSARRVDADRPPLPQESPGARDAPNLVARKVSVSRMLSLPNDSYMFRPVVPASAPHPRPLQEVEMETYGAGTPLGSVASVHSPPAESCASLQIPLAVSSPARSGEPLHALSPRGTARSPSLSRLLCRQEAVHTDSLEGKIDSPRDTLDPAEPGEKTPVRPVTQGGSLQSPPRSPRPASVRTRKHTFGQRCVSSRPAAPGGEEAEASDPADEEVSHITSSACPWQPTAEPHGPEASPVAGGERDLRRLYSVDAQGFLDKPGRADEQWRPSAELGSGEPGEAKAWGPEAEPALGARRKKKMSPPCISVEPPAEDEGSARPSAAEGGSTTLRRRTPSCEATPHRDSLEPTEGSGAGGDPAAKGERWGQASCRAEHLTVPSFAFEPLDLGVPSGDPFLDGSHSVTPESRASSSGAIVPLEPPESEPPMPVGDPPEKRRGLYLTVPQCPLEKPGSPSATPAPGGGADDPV
# Sequence of Paired box protein Pax-8 (Q06710 whole entry): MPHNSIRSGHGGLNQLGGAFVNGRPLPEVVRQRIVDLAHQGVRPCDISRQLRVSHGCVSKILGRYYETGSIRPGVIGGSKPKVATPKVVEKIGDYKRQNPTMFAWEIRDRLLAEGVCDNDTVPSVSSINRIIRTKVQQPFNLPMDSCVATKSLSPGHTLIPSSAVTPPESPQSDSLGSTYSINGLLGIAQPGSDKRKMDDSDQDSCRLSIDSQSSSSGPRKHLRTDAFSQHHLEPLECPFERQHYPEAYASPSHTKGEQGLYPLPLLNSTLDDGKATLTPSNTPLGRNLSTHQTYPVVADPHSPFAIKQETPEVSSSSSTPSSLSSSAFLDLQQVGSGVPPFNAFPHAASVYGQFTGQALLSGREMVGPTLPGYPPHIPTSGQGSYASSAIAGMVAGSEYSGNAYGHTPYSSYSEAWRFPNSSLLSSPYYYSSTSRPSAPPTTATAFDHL
# Sequence of Nonstructural protein 1 (Q194T2 whole entry): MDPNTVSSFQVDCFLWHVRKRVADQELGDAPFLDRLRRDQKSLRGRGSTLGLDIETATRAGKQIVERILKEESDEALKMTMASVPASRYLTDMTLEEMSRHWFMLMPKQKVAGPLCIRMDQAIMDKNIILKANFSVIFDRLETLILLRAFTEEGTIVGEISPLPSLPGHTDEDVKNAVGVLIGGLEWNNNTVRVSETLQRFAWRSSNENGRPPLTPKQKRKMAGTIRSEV
smiles,measurement,setting,value
Cc1ccc2[nH]c(/C(C#N)=C\c3cc(O)ccc3[N+](=O)[O-])nc2c1,AC50,[1],1.82 µM (active)
O=C(CC(SCCO)c1ccc2c(c1)OCO2)c1ccco1 (configuration not stated),AC50,[1],0.563 µM (active)
CCCCn1c(=O)c(C(=O)Nc2nnc(C(C)C)s2)c(O)c2ccccc21,IC50,[2],5.24 µM (active)
O=C(CCSc1ccc(Cl)c(Cl)c1)NC12CC3CC(CC(C3)C1)C2,EC50,[3],5.57 µM (active)
CCO/C=C1/C(=O)N(c2ccccc2OC)C(=O)c2ccccc21,AC50,[4],13.9 µM (active)
CC(C(=O)OCC(=O)Nc1ccc(S(=O)(=O)N2CCCCC2)cc1)N1C(=O)c2ccccc2C1=O (configuration not stated),EC50,[3],5.44 µM (active)
Cc1ccc(C(=O)NCc2ccc3c(c2)OCO3)cc1S(=O)(=O)N1CCCCC1,EC50,[3],5.23 µM (active)
O=C1/C(=C/c2ccc3c(c2)OCO3)Oc2cc(OCC(=O)N3CC(O)C[C@H]3C(=O)O)ccc21 (some centres not stated),AC50,[1],3.56 µM (active)
CC1CCCCN1C(=O)CSCC(=O)Nc1nc(-c2cccs2)cs1 (configuration not stated),EC50,[3],4.06 µM (active)
C=C1CCN([C@H](C(=O)OCc2cccc(C)c2)C(C)C)S(=O)(=O)c2ccccc21,AC50,[5],4.76 µM (active)
same,AC50,[6],1.99 µM (active)
same,AC50,[7],5.21 µM (active)
same,AC50,[8],3.64 µM (active)
CCCCOC(=O)n1c(=O)oc2cc(S(=O)(=O)N3CCCCC3)ccc21,EC50,[3],4.48 µM (active)
same,EC50,[9],> 350 µM (not active)
same,EC50,[10],> 350 µM (not active)
CCN1C(=O)/C(=C\N2CCN(c3ccc(F)cc3)CC2)SC1=S,EC50,[11],> 150 µM (not active)
same,EC50,[12],> 150 µM (not active)
same,EC50,[13],> 120 µM (not active)
same,EC50,[14],> 120 µM (not active)
same,EC50,[15],> 150 µM (not active)
same,EC50,[16],81.2 µM (active)
same,EC50,[17],16.1 µM (active)
O=C(OCc1nnc(-c2ccccc2)o1)c1cc(S(=O)(=O)N2CCOCC2)c(Cl)cc1Cl,AC50,[18],10.8 µM (active)
CCOC(=O)c1[nH]c2ccc(F)cc2c1NC(=O)CN1CCN(C/C=C/c2ccccc2)CC1,CC50,[19],22.4 µM (active)
same,CC50,[20],8.01 µM (active)
COCCCNC(=S)NNC(=O)c1ccccn1,AC50,[18],24.1 µM (active)
same,IC50,[21],2.32 µM (active)
same,IC50,[22],> 20 µM (inactive)
Cc1ccccc1NC(=O)c1c(F)c(F)c(F)c(F)c1F,AC50,[18],29.3 µM (active)
O=C(O)C1C2C=CC(C2)C1C(=O)Nc1ccccc1Br (configuration not stated),IC50,[23],16.7 µM (active)
same,AC50,[4],6.78 µM (active)
COc1ccc(OC)c2sc(NC(=O)C3COc4ccccc4O3)nc12 (configuration not stated),EC50,[3],78 µM (active)
CCCCCCNC(=O)O[C@H]1Cn2c(=O)ccc(=O)n2[C@@H]2CN(S(=O)(=O)c3ccc(C)cc3)C[C@]12O,AC50,[24],31.5 µM (active)
same,CC50,[25],24 µM (active)
same,AC50,[26],19.1 µM (active)
same,AC50,[27],14.1 µM (active)
CC[C@@]1(C(=O)OC)N[C@H](CN(C)S(=O)(=O)c2ccc(-c3ccccc3)cc2)[C@@H]2C(=O)N(Cc3ccccc3)C(=O)[C@@H]21,AC50,[5],2.54 µM (active)
same,AC50,[6],2.09 µM (active)
same,AC50,[7],2.61 µM (active)
same,AC50,[8],2.28 µM (active)
C[C@@H]1CN([C@@H](C)CO)C(=O)Cc2cc(NC(=O)Nc3ccc(F)cc3)ccc2O[C@H]1CN(C)CC1CCCCC1,AC50,[28],7.86 µM (active)
same,AC50,[29],20.4 µM (active)
same,AC50,[30],10.9 µM (active)
O=C(N/N=C/c1ccc(OC(=O)c2cccs2)cc1)c1ccccn1,IC50,[2],5.37 µM (active)
O=C(N/N=C/c1ccc[nH]1)c1ccncc1,IC50,[2],2.28 µM (active)
O=C(C1CCCC1)N1C[C@@H]2N[C@H](C1)[C@@H]2c1ccc(/C=C/c2ccccc2)cc1,AC50,[28],4.23 µM (active)
same,AC50,[30],7.79 µM (active)
COc1ccc(C2=Nn3c(nnc3-c3ccccc3F)SC2)cc1OC1CCCC1,IC50,[22],> 20 µM (inactive)
same,AC50,[31],6.06 µM (active)
same,CC50,[19],9.04 µM (active)
C[C@@]1(CO)[C@H](O)CC[C@@]2(C)[C@H]1CC[C@H]1C[C@@H]3C[C@@]12CC[C@]3(O)CO [APHIDICOLIN],EC50,[11],> 150 µM (inconclusive)
same,EC50,[12],28.6 µM (active)
same,EC50,[32],1.73 µM (active)
same,EC50,[15],> 150 µM (not active)
same,EC50,[16],38.6 µM (active)
same,EC50,[33],0.839 µM (active)
